Some test systems named below: DLD-1; XF498; SNB-78; DMS-273; HOP-18; DMS-114; LXFL 529; M19-MEL; RXF 631.
Holding throughout (assay): NCI-60 cell line screen, 48 h

The results in this text go back to ChEMBL document CHEMBL1201862, “PubChem BioAssay data set” (2004).

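A five-concentration, 48-hour dose response in 96-well plates underlies each endpoint, interpolated linearly between surrounding concentrations. GI50 = concentration required for 50% inhibition of growth.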 Activity calls are given as the source filed them. Cut-off read from the data, not from the text of the source: active = GI50 up to about 1.1 µM and inactive = higher.

Turning to `O=C(NN1C(=O)C(Cl)C1c1ccc(O)cc1)c1ccccc1O` (configuration not stated), the GI50 with DLD-1 is 15.8 µM (inactive); in the assay with XF498, 11.1 µM (inactive); in the assay with SNB-78, 21.7 µM (inactive); in the assay on DMS-273 it was 12.9 µM (inactive); in the assay with HOP-18, 15.9 µM (inactive); with DMS-114, 14 µM (inactive). The results for the GI50 in the assay on LXFL 529 and in the assay on M19-MEL were 17.9 µM (inactive) and 21.7 µM (inactive), respectively.
`COc1ccc(/C=C2/CSC/C(=C/c3ccc(OC)c(OC)c3)C2=O)cc1OC`: the GI50 in the assay on DLD-1 was 0.46 µM (active); in the assay with XF498 it was 11.7 µM (inactive); in the assay on SNB-78, 2.12 µM (inactive); with DMS-273, 1.03 µM (active); in the assay with RXF 631, 1.99 µM (inactive); in the assay with HOP-18, 6.65 µM (inactive). Moreover, the results for the GI50 in the assay on LXFL 529 and with M19-MEL were 1.93 µM (inactive) and 2.14 µM (inactive), respectively.
Take `O=C1C=C(O)c2nc(O)ccc2C1=O`: the GI50 with DLD-1, with XF498, in the assay on SNB-78, with DMS-273 and in the assay with M19-MEL was > 100 µM (inactive) each time.
Take `Cc1ccc(NC(=O)C(=O)C(C#N)c2ccccc2C)cc1C` (configuration not stated): the GI50 was 52.4 µM (inactive) in the assay on DLD-1; > 100 µM (inactive) with XF498; > 100 µM (inactive) in the assay on SNB-78; > 71.6 µM (inactive) with DMS-273; > 100 µM (inactive) in the assay with HOP-18; > 41.7 µM (inactive) in the assay on DMS-114. In the assay on LXFL 529, the GI50 is > 100 µM (inactive).
`Cc1cc(C)[n+]2c(c1)C=CC2.[O-][Cl+3]([O-])([O-])[O-]`: the GI50 was 10.7 µM (inactive) in the assay on DLD-1; 21.2 µM (inactive) in the assay with SNB-78; 0.459 µM (active) with DMS-273; 5.5 µM (inactive) in the assay with DMS-114; 16.5 µM (inactive) in the assay with LXFL 529; 21.2 µM (inactive) in the assay with M19-MEL.
On to `O=C1C[C@H](c2ccc(O)c(O)c2)Oc2cc(O)cc(O)c21`, for which the GI50 in the assay on DLD-1 was > 100 µM (inactive); in the assay with SNB-78, > 100 µM (inactive); with DMS-273, > 100 µM (inactive); with RXF 631, 64.4 µM (inactive); in the assay on HOP-18 it was > 100 µM (inactive); with DMS-114, 21.2 µM (inactive). The GI50 in the assay with LXFL 529 and in the assay with M19-MEL was > 100 µM (inactive) each time.
As for `COc1ccc(CC#C/C=C/C(=O)NCC(C)C)cc1`, the GI50 with DLD-1, in the assay on XF498, in the assay with SNB-78, in the assay on DMS-273, with HOP-18 and with DMS-114 was > 100 µM (inactive) each time. For the same compound, the GI50 with LXFL 529 and in the assay with M19-MEL was > 100 µM (inactive) throughout.
Take `CC(=O)NCc1c(C(N)=O)ncn1Cc1ccccc1`: the GI50 in the assay on XF498, in the assay with SNB-78, in the assay on DMS-273, with RXF 631, in the assay with HOP-18 and in the assay on DMS-114 was > 100 µM (inactive) in each case. The GI50 with LXFL 529 and in the assay on M19-MEL was > 100 µM (inactive) throughout.
Take `O=C(OCc1nc2ccc(Br)cc2c(=O)n1-c1ccccc1)c1ccccc1O`: the GI50 with DLD-1 was 67.1 µM (inactive); with XF498, 51.4 µM (inactive); in the assay on SNB-78 it was > 100 µM (inactive); in the assay with LXFL 529, 35.4 µM (inactive); with M19-MEL it was > 100 µM (inactive).
Turning to `CC(=O)OC1COC(N2C(=O)C(=O)c3ccccc32)C(OC(C)=O)C1OC(C)=O` (configuration not stated), the GI50 in the assay with DLD-1, in the assay on SNB-78, in the assay on DMS-273, in the assay on RXF 631, with DMS-114 and in the assay on LXFL 529 was > 100 µM (inactive) each time. Besides, the GI50 with M19-MEL is 34.8 µM (inactive).
For `O/N=C1/C(=C/c2ccc(Oc3ccccc3)cc2)CCCC1C(NO)c1ccc(Oc2ccccc2)cc1` (configuration not stated), the GI50 is 66.1 µM (inactive) in the assay on DLD-1; 29.7 µM (inactive) in the assay on XF498; 34.8 µM (inactive) with SNB-78; 28.6 µM (inactive) in the assay with DMS-273; 33.2 µM (inactive) in the assay with RXF 631; > 100 µM (inactive) in the assay on HOP-18. Also, the GI50 in the assay on DMS-114 was 26.4 µM (inactive); in the assay with LXFL 529, 33 µM (inactive); with M19-MEL it was 39.6 µM (inactive).
With `CN(C)c1nc(N(C)C)sc(=O)n1`, the GI50 in the assay with DLD-1, in the assay on XF498, in the assay with DMS-273, in the assay with HOP-18, in the assay on DMS-114 and in the assay with LXFL 529 was > 100 µM (inactive) in each case. In addition, in the assay with M19-MEL, the GI50 is > 100 µM (inactive).
Consider `COc1ccc(C(c2c(O)c3ccccc3n(-c3ccccc3)c2=O)c2c(O)c3ccccc3n(-c3ccccc3)c2=O)cc1`, for which the GI50 in the assay with DLD-1 is > 100 µM (inactive); in the assay with XF498 it was 59.3 µM (inactive); in the assay with SNB-78, > 100 µM (inactive); with DMS-273, > 100 µM (inactive); with HOP-18 it was > 100 µM (inactive); in the assay on DMS-114 it was > 100 µM (inactive). For the same compound, the GI50 in the assay on LXFL 529 and in the assay on M19-MEL was > 100 µM (inactive) each time.
In the case of `CC(=O)C1=C(C)NC2C=CC=CN12` (configuration not stated), the GI50 in the assay with DLD-1, with XF498, in the assay on SNB-78, in the assay on DMS-273, in the assay on HOP-18 and with DMS-114 was > 100 µM (inactive) throughout. Further, the GI50 with M19-MEL is > 100 µM (inactive).
Turning to `O=C1c2ccccc2C(=O)N1C/C=N/NS(=O)(=O)c1ccc2ccccc2c1`, the GI50 with DLD-1, in the assay with XF498, with SNB-78, with DMS-273, with RXF 631 and in the assay with HOP-18 was > 100 µM (inactive) each time. The GI50 in the assay with LXFL 529 and with M19-MEL was > 100 µM (inactive) each time.
`N#CC(/C(CCCC(=O)Nc1cccc([N+](=O)[O-])c1)=N/NC(=O)c1cc2ccccc2cc1O)c1ccccc1` (configuration not stated): the GI50 is 36.7 µM (inactive) in the assay on DLD-1; 25 µM (inactive) in the assay with XF498; 29.8 µM (inactive) in the assay on RXF 631; 18.3 µM (inactive) in the assay on HOP-18; 20.2 µM (inactive) in the assay on DMS-114; 27.2 µM (inactive) in the assay on LXFL 529. In addition, the GI50 in the assay on M19-MEL is 17.9 µM (inactive).
Consider `CC(=O)Oc1ccc(O)c2c1CCCC2`, for which the GI50 is 20.7 µM (inactive) with DLD-1; 16.4 µM (inactive) with XF498; 19.8 µM (inactive) in the assay on SNB-78; > 46.1 µM (inactive) in the assay with DMS-273; > 100 µM (inactive) in the assay on RXF 631; 21.6 µM (inactive) in the assay with HOP-18. For the same compound, the GI50 in the assay on DMS-114 was 30.2 µM (inactive); with LXFL 529 it was 16.3 µM (inactive); with M19-MEL, 13.4 µM (inactive).
For the compound `O=c1c2ccccc2oc2nccnc12`, the GI50 in the assay on DLD-1, with XF498, in the assay on SNB-78, in the assay on DMS-273, in the assay with RXF 631 and in the assay on HOP-18 was > 100 µM (inactive) each time. Further, the GI50 in the assay with DMS-114, with LXFL 529 and in the assay with M19-MEL was > 100 µM (inactive) throughout.
Consider `COc1cc2c(cc1OC)C(C(CBr)CBr)N(C1CCCC1)CC2` (configuration not stated), for which the GI50 in the assay with DLD-1 is > 100 µM (inactive); with XF498 it was > 100 µM (inactive); in the assay on SNB-78, > 10 µM (inactive); with DMS-273, > 100 µM (inactive); with LXFL 529, > 100 µM (inactive); in the assay on M19-MEL, > 100 µM (inactive).
In the case of `C#C[C@@]1(O)CCCC2=CC(=O)C[C@]21C`, the GI50 in the assay on DLD-1, in the assay with XF498, with HOP-18, in the assay on DMS-114, in the assay on LXFL 529 and with M19-MEL was > 100 µM (inactive) each time.
In the case of `COc1cccc2ccc(C(=O)c3ccccc3)nc12`, the GI50 with DLD-1 was > 100 µM (inactive); in the assay on XF498, > 100 µM (inactive); with SNB-78, > 100 µM (inactive); in the assay on DMS-273, > 100 µM (inactive); with LXFL 529 it was 77.8 µM (inactive).
Take `COC(=O)N/N=C/c1oc(-c2ccccc2)c(-c2ccccc2)c1[N+](=O)[O-]`: the GI50 with DLD-1, in the assay with XF498, with SNB-78, in the assay on DMS-273, in the assay with RXF 631 and with DMS-114 was > 100 µM (inactive) in each case. Further, the GI50 with LXFL 529 and in the assay with M19-MEL was > 100 µM (inactive) in each case.
Regarding `C[N+](C)(C)CC1CCCCC1O` (configuration not stated), the GI50 with DLD-1 was > 100 µM (inactive); in the assay on SNB-78 it was > 100 µM (inactive); with DMS-273 it was > 100 µM (inactive); in the assay on RXF 631, > 100 µM (inactive); in the assay with HOP-18, 1.28 µM (inactive); in the assay on LXFL 529, > 100 µM (inactive). The GI50 in the assay with M19-MEL is > 100 µM (inactive).
As for `CCCC(C)NC1=C(NC(C)=O)C(=O)c2ccccc2C1=O` (configuration not stated), the GI50 in the assay with DLD-1 is > 100 µM (inactive); with XF498, > 100 µM (inactive); in the assay with SNB-78 it was > 100 µM (inactive); in the assay on DMS-273, > 100 µM (inactive); in the assay on LXFL 529, > 100 µM (inactive); with M19-MEL, 62.7 µM (inactive).
Turning to `C=C1C(=O)C=C2C=C3C(=O)C(C)(C)C[C@]3(O)C12C` (some centres not stated), the GI50 in the assay with DLD-1 is 1.65 µM (inactive); in the assay on XF498, 1.85 µM (inactive); in the assay on SNB-78 it was 7.74 µM (inactive); with DMS-273, 5.92 µM (inactive); in the assay with RXF 631, 16.4 µM (inactive); in the assay with DMS-114, 1.1 µM (active). The GI50 in the assay on LXFL 529 was 1.26 µM (inactive); with M19-MEL it was 5.68 µM (inactive).
Take `COC(=O)C[S+]([O-])c1ccccc1` (configuration not stated): the GI50 in the assay on DLD-1 was 29.1 µM (inactive); in the assay on XF498, 76.7 µM (inactive); in the assay with SNB-78, 33.5 µM (inactive); with DMS-273, 28.9 µM (inactive); with DMS-114, 20.8 µM (inactive); in the assay on LXFL 529, 31.8 µM (inactive). Moreover, the GI50 in the assay with M19-MEL is 30.5 µM (inactive).
